In patent US8124647B2 (priority 2002, dated 2012) one finds EC50 data, which are given here for 19 molecules.

In assay [1] the target is T1, human androgen receptor (Homo sapiens, UniProt P10275).
T1 construct: expressed in transfected cells; host or cells: CHO cells, cell line CHO-AR-pMMTV-LUC 1G12-A5-CA
T1 sequence (P10275 1-920): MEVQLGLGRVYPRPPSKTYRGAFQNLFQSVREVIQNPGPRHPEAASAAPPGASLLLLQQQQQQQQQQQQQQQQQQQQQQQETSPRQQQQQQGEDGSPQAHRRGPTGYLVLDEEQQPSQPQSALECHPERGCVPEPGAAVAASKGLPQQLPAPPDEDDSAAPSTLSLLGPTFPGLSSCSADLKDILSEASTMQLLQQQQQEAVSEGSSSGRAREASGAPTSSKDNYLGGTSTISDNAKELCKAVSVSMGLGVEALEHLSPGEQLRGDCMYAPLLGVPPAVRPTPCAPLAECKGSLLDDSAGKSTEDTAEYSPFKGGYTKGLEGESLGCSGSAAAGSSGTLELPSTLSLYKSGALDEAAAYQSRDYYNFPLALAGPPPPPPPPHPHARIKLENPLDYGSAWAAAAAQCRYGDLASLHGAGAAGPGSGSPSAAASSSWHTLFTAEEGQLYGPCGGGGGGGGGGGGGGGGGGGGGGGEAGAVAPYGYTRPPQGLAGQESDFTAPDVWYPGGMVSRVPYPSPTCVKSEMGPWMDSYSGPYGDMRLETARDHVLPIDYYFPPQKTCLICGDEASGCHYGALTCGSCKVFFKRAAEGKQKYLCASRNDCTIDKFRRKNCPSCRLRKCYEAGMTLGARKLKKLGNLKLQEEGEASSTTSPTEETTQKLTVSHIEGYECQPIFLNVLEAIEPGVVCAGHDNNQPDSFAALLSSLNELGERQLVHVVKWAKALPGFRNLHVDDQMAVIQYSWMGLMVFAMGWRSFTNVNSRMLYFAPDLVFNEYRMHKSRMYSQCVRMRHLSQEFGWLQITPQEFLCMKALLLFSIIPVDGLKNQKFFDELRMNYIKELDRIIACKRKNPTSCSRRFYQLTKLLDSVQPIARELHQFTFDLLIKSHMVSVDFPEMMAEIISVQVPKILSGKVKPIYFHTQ
Description: androgenic activity (EC50 and intrinsic activity), transactivation bioassay in CHO-AR-pMMTV-LUC cells (Table 4). The class given is cell-based. How it is done:
(§1) Compounds were tested for their Androgen Receptor activity in a transactivation assay and in a binding assay.
(§2) The (anti-)androgenic activity of test compounds (EC50 and intrinsic activity) was determined in an in vitro bioassay of Chinese hamster ovary (CHO) cells stably transfected with the human androgen receptor expression plasmid and a reporter plasmid in which the MMTV-promoter is linked to the luciferase reporter gene. The cell-line CHO-AR-pMMTV-LUC 1G12-A5-CA is described in Schoonen et al. (2000), Journal of Steroid Biochemistry and Molecular Biology 74(4):213-222. The antiandrogenic activity of a test compound was determined by the inhibition of the transactivation via the androgen receptor of the enzyme luciferase in the presence of 1 nM DHT (5α-dihydrotestosterone, 17β-hydroxy-5α-androstan-3-one). Intrinsic activity of antiandrogenic activity was determined in the presence of the reference antiandrogen 2-Hydroxy-2-methyl-N-(4-nitro-3-trifluoromethyl-phenyl)-propionamide(Hydroxyflutamide), and set at 100%. For androgenic activity, maximal intrinsic activity in the presence of 100 nM DHT was set at 100%.

Assay [2] concerns the target T1, human androgen receptor. Description: cell-based. The note with it: in the presence of 1 nM DHT. How it is done: as §1, §2
[3] abbreviates: androgenic activity, read-out: ago EC50.
The mark [4] stands for this setting: antiandrogenic activity, read-out: ant EC50.

As usually defined, the EC50 is the concentration that produces a half-maximal response.

`COc1ccc2c(Sc3ccccc3[N+](=O)[O-])cn(Cc3ccccn3)c2c1` [Compound 9, 6-Methoxy-3-(2-nitro-phenylsulfanyl)-1-pyridin-2-ylmethyl-1H-indole]: the EC50 at human androgen receptor [1] (setting [3]) and at human androgen receptor [2] (setting [4]) was less than 5 nM in each case.

Regarding `COc1ccc2c(Sc3ccccc3C(N)=O)cn(Cc3cc(F)cc(F)c3)c2c1` [Compound 18, 2-[1-(3,5-Difluoro-benzyl)-6-methoxy-1H-indol-3-ylsulfanyl]-benzamide], the EC50 on human androgen receptor [1] (setting [3]) and on human androgen receptor [2] (setting [4]) was 5 to 100 nM in each case.

`COc1ccc2c(Sc3ccccc3[N+](=O)[O-])cn(Cc3cccc(C(F)(F)F)c3)c2c1` [Compound 78]: the figures for the EC50 at human androgen receptor [1] (setting [3]) and at human androgen receptor [2] (setting [4]) were 5 to 100 nM and more than 10000 nM, respectively.

Take `COc1ccc(Cn2cc(Sc3ccccc3[N+](=O)[O-])c3ccc(OC)cc32)cc1` [Compound 84]: the EC50 on human androgen receptor [1] (setting [3]) is less than 1000 nM; at human androgen receptor [2] (setting [4]) it was 1000 to 10000 nM.

As to `COc1ccc2c(S(=O)(=O)c3ccccc3[N+](=O)[O-])cn(Cc3cc(F)cc(F)c3)c2c1` [Compound 62, 1-(3,5-Difluoro-benzyl)-6-methoxy-3-(2-nitro-benzenesulfonyl)-1H-indole], the figures for the EC50 on human androgen receptor [1] (setting [3]) and on human androgen receptor [2] (setting [4]) were less than 5 nM and more than 10000 nM, respectively.

As for `COC(=O)c1ccccc1Sc1cn(Cc2cc(F)cc(F)c2)c2cc(OC)ccc12` [Compound 19, 2-[1-(3,5-Difluoro-benzyl)-6-methoxy-1H-indol-3-ylsulfanyl]-benzoic acid methyl ester], the EC50 on human androgen receptor [1] (setting [3]) was less than 1000 nM; on human androgen receptor [2] (setting [4]), more than 10000 nM.

Consider `COc1ccc2c(Sc3ccccc3[N+](=O)[O-])cn(Cc3cc(C)on3)c2c1` [Compound 13], for which the EC50 on human androgen receptor [1] (setting [3]) was less than 1000 nM; at human androgen receptor [2] (setting [4]), more than 10000 nM.

On to `COc1ccc2c(Sc3ccccc3[N+](=O)[O-])cn(Cc3cccc(Cl)c3)c2c1` [Compound 67], for which the EC50 was 5 to 100 nM at human androgen receptor [1] (setting [3]) and more than 10000 nM on human androgen receptor [2] (setting [4]).

For `COC(=O)c1ccc2c(Sc3ccccc3[N+](=O)[O-])cn(Cc3cc(F)cc(F)c3)c2c1` [Compound 31, 1-(3,5-Difluoro-benzyl)-3-(2-nitro-phenylsulfanyl)-1H-indole-6-carboxylic acid methyl ester], the EC50 at human androgen receptor [1] (setting [3]) is less than 5 nM; at human androgen receptor [2] (setting [4]), more than 10000 nM.

Regarding `COc1ccc2c(Sc3ccccc3[N+](=O)[O-])cn(Cc3ccccc3[N+](=O)[O-])c2c1` [Compound 8], the EC50 is 5 to 100 nM at human androgen receptor [1] (ago EC50, androgenic activity) and more than 10000 nM on human androgen receptor [2] (ant EC50, antiandrogenic activity).

Consider `COc1ccc2c(Sc3ccccc3[N+](=O)[O-])cn(CC3CCCCO3)c2c1` (stereo not drawn) [Compound 11], for which the results for the EC50 at human androgen receptor [1] (setting [3]) and on human androgen receptor [2] (setting [4]) were 5 to 100 nM and more than 10000 nM, respectively.

Consider `Cc1cccc2c1c(Sc1ccccc1[N+](=O)[O-])cn2Cc1cc(F)cc(F)c1` [Compound 55], for which the figures for the EC50 at human androgen receptor [1] (setting [3]) and at human androgen receptor [2] (setting [4]) were 5 to 100 nM and more than 10000 nM, respectively.

For the molecule `COc1ccc2c(Sc3ccccc3[N+](=O)[O-])cn(Cc3ccc(Cl)s3)c2c1` [Compound 88], the half-maximal effective concentration (EC50) on human androgen receptor [1] (setting [3]) was 5 to 100 nM; on human androgen receptor [2] (setting [4]), more than 10000 nM.

For `COc1ccc2c(Sc3ccccc3[N+](=O)[O-])cn(Cc3cccc(C#N)c3)c2c1` [Compound 68], the EC50 at human androgen receptor [1] (setting [3]) was less than 5 nM; on human androgen receptor [2] (setting [4]), more than 10000 nM.

With `COc1ccc2c(Sc3ccccc3[N+](=O)[O-])cn(Cc3cc(F)cc(F)c3)c2c1` [Compound 63, 1-(3,5-Difluoro-benzyl)-6-methoxy-3-(2-nitro-phenylsulfanyl)-1H-indole], the results for the EC50 at human androgen receptor [1] (setting [3]) and at human androgen receptor [2] (setting [4]) were less than 5 nM and more than 10000 nM, respectively.

With `COc1ccc2c(Sc3ccccc3[N+](=O)[O-])cn(Cc3csc(C)n3)c2c1` [Compound 79], the EC50 at human androgen receptor [1] (setting [3]) was 5 to 100 nM; at human androgen receptor [2] (setting [4]), more than 10000 nM.

As for `COC(=O)CNC(=O)c1ccc2c(Sc3ccccc3[N+](=O)[O-])cn(Cc3cc(F)cc(F)c3)c2c1` [Compound 39], the results for the EC50 on human androgen receptor [1] (setting [3]) and on human androgen receptor [2] (setting [4]) were 5 to 100 nM and more than 10000 nM, respectively.

On to `O=[N+]([O-])c1ccccc1Sc1cn(Cc2cc(F)cc(F)c2)c2cc(O)ccc12` [Compound 61, 1-(3,5-Difluoro-benzyl)-3-(2-nitro-phenylsulfanyl)-1H-indol-6-ol], for which the EC50 on human androgen receptor [1] (setting [3]) was less than 5 nM.

For `O=[N+]([O-])c1ccccc1Sc1cn(Cc2cc(F)cc(F)c2)c2ccc(O)cc12` [Compound 56], on human androgen receptor [1] (setting [3]), the EC50 was less than 5 nM.
